Measured values as given in patent US20250034139A1, “AMINE COMPOUNDS HAVING ANTI-INFLAMMATORY, ANTIFUNGAL, ANTIPARASITIC, AND ANTICANCER ACTIVITY” (PHARMA CINQ, LLC, priority 2013, published 2025).

Experiments:
[1] = tested on: EAE induced by PLP139-151; assay: Example G: Experimental Autoimmune Encephalitis (EAE) mouse model of multiple sclerosis; assay type: in vivo
[2] = tested on: Vit-D3 activated THP-1 cells; assay: Example B: JC-1 mitochondrial loading (mitochondrial membrane potential); assay type: cell-based, Human; conditions: 5 hours
Experimental: In this experiment, cell viability was monitored and uptake and accumulation of acridine orange, a lysosomotropic fluorescent dye, was used to assess lysosomal acidification and integrity. JC-1 dye was used to measure effects of test compounds on mitochondrial membrane potential (MMP); reduction of MMP is a feature of apoptotic cell death.
• 1. Vit-D3 activated THP-1 cells (0.5×10^6 cells in 2 ml) were transferred to the wells of a 24-well dish • 2. […] […] LPS from E. coli 0111:B4 (1 ng/ml final concentration) was added to some wells • 5. After 5 hours viable cell count, Acridine Orange (A.O.) uptake and JC-1 mitochondrial loading were determined by fluorescence-activated cell sorting (FACS)
THP-1 cells (p39) treated with 0.1 μM vit-D3 (100 μM) in DMSO] for 3 days were counted, spun down, resuspended in serum-free RPMI (Lonza 12-115F) and transferred to the wells of two 24-well dishes (0.5×10^6 cells in 2 ml). […] Crude-LPS from E. coli 0111:B4 was added to some wells (1 ng/ml final conc) and the plates placed in a 37 C incubator. 1 μl of Baf A1 (50 nM final conc) was added to one well (no LPS) at T=4 hours to serve as a compensation control for Acridine Orange loading. After 5 hours, 500 μl aliquots of cells were transferred to FACS tubes and viable cell counts, A.O. loading and JC-1 accumulation determined by FACS.

PC-3 cells = assay: Example P: PC-3 human hormone-independent prostate cancer xenografts in nude mice; assay type: in vivo
Experimental: Standard models for prostate cancer use subcutaneous xenografts of human prostate cancer cell line. Local measurable tumors are produced at the site of injection of the cells, and they metastasize to critical tissues such as the bones, lungs and liver. Mortality in this model is due to metastases impairing tissue function. Compounds of the invention were assessed for inhibition of tumor growth and reduction or delay of mortality in the PC-3 prostate cancer model, which mimics an advanced, androgen-independent stage of prostate cancer.
10 female nude mice (female Hsd:athymic nude-Foxn1^nu) received PC-3 cells (5×10^6 per mouse in 0.1 mL PBS) by subcutaneous injection into the right hind flank. […] Mice received AC or vehicle (saline) via intraperitoneal (i.p.) injection once daily until day 79. • 1. […] Compound AC: 120 μmol/kg/day.
Tumors were measured with calipers twice per week, and body weights and mortality were also monitored.

[3] = AC 120 μmol/kg/day i.p. once daily, group of 5

| SMILES | EAE Score on Day 46 ([1]; 60 μmol/kg by oral gavage from Day 14, score 0-5) | EAE Score on Day 14 (Before Treatment) ([1]; baseline, score 0-5) | JC-1 Red cells (functional mitochondria) percent change from DMSO (no LPS), Mean ± SE ([2]; 0.1 μM AC, 1 ng/ml LPS) [%] | JC-1 Red cells (functional mitochondria) percent change from DMSO (no LPS), Mean ± SE ([2]; 0.1 μM AC, No LPS) [%] | JC-1 Red cells (functional mitochondria) percent change from DMSO (no LPS), Mean ± SE ([2]; 0.5 μM AC, 1 ng/ml LPS) [%] | JC-1 Red cells (functional mitochondria) percent change from DMSO (no LPS), Mean ± SE ([2]; 0.5 μM AC, No LPS) [%] | JC-1 Red cells (functional mitochondria) percent change from DMSO (no LPS), Mean ± SE ([2]; 1.0 μM AC, 1 ng/ml LPS) [%] | JC-1 Red cells (functional mitochondria) percent change from DMSO (no LPS), Mean ± SE ([2]; 1.0 μM AC, No LPS) [%] | mean body weight at end of study (PC-3 cells; AC 120 μmol/kg/day i.p.) [g] | mice regressed more than 50% from the initial tumor size (PC-3 cells; AC 120 μmol/kg/day i.p.) | mice with no detectable tumors at end of study (complete regressions) (PC-3 cells; AC 120 μmol/kg/day i.p.) | day of death of the one mouse that died (PC-3 cells; [3]) [days] | number of mice surviving until the study was terminated on day 79 (PC-3 cells; [3]) | tumor size, average % of initial size (PC-3 cells; day 77, AC 120 μmol/kg/day i.p.) [%] | initial group body weight (PC-3 cells; pretreatment) [g] |
| --- | --- | --- | --- | --- | --- | --- | --- | --- | --- | --- | --- | --- | --- | --- | --- |
| CCCCCCOc1cccc(OCCCNc2ccnc3ccccc23)c1 [AZ, N-{3-[3-(Hexyloxy)phenoxy]propyl}quinolin-4-amine] | 2.50 ± 0.29 | 0.83 ± 0.41 | – | – | – | – | – | – | – | – | – | – | – | – | – |
| CCCCCCOc1cccc(CNc2ccnc3ccccc23)c1 [Compound AC, N-[3-(Hexyloxy)benzyl]quinolin-4-amine] | – | – | −1.66 ± 0.96 | 1.18 ± 0.91 | −7.19 ± 1.52 | −4.39 ± 1.40 | −16.41 ± 2.60 | −10.40 ± 2.08 | 28.9 ± 1.3 | one | two | 65 | 4 | 949 | 26.8 ± 0.5 |
